According to the NIST ThermoML archive (doi:10.1016/j.jct.2016.02.010):

How the values were obtained:
[1] = Crystal; for vapor or sublimation pressure: Calculated from knudsen effusion weight loss; for Normal melting temperature: DTA
[2] = molar heat capacity at constant pressure; conditions: 101.33 kPa, Small sample (50 mg) DSC
[3] = Molar enthalpy of transition or fusion; conditions: Crystal; DSC

OC(c1ccccc1)(c1ccccc1)c1ccccc1 [triphenylmethanol]
[1]
Conditions | vapor or sublimation pressure [kPa]
342.25 K | 3.35e-06
344.44 K | 4.39e-06
347.56 K | 6.8e-06
351.64 K | 1.11e-05
353.37 K | 1.42e-05
356.81 K | 1.93e-05
358.08 K | 2.17e-05

Conditions | Molar enthalpy of transition or fusion [kJ/mol] | Normal melting temperature [°C]
[1] | – | 162.1
[3] | 27.3 | –

[2], Crystal
Conditions | molar heat capacity at constant pressure [J/K/mol]
259.15 K | 283
260.15 K | 283.6
261.15 K | 284.9
262.15 K | 285.6
263.15 K | 286.4
264.15 K | 288.3
265.15 K | 289.5
266.15 K | 290.4
267.15 K | 291.2
268.15 K | 290.8
269.15 K | 292.3
270.15 K | 293.4
271.15 K | 294.3
272.15 K | 295.3
273.15 K | 296.5
274.15 K | 297.4
275.15 K | 297.3
276.15 K | 298.6
277.15 K | 299.8
278.15 K | 301.2
279.15 K | 302.1
280.15 K | 302.8
281.15 K | 303.4
282.15 K | 304.7
283.15 K | 306
284.15 K | 305.9
285.15 K | 307
286.15 K | 307.4
287.15 K | 308.9
288.15 K | 309.3
289.15 K | 310.1
290.15 K | 310.6
291.15 K | 311.8
292.15 K | 312.5
293.15 K | 312.9
294.15 K | 313.5
295.15 K | 314.7
296.15 K | 315.1
297.15 K | 316.1
298.15 K | 316.4
299.15 K | 316.9
300.15 K | 319.7
301.15 K | 320.5
302.15 K | 321.2
303.15 K | 322.1
304.15 K | 323
305.15 K | 324.7
306.15 K | 325.1
307.15 K | 326.1
308.15 K | 327.2
309.15 K | 328.5
310.15 K | 329.3
311.15 K | 330
312.15 K | 331.2
313.15 K | 331.9
314.15 K | 332.7
315.15 K | 333.4
316.15 K | 334.4
317.15 K | 335.9
318.15 K | 336.8
319.15 K | 337.6
320.15 K | 338.3
321.15 K | 339.8
322.15 K | 340.7
323.15 K | 343.5
324.15 K | 344.4
325.15 K | 345.5
326.15 K | 346.3
327.15 K | 347.4
328.15 K | 348.5
329.15 K | 349.7
330.15 K | 350.6
331.15 K | 351.4
332.15 K | 352.2
333.15 K | 353.2
334.15 K | 354.1
335.15 K | 355
336.15 K | 356.1
337.15 K | 357.1
338.15 K | 358.3
339.15 K | 359.3
340.15 K | 359.9
341.15 K | 360.8
342.15 K | 362
343.15 K | 363.1
344.15 K | 363.9
345.15 K | 364.6
346.15 K | 365.7
347.15 K | 366.7
348.15 K | 367.5
349.15 K | 368.3
350.15 K | 369.4
351.15 K | 370.6
352.15 K | 371.3
353.15 K | 374.6
354.15 K | 375.6
355.15 K | 376.7
356.15 K | 378.1
357.15 K | 379
358.15 K | 379.6
359.15 K | 380.8
360.15 K | 381.6
361.15 K | 382.3
362.15 K | 383
363.15 K | 383.8
364.15 K | 384.8
365.15 K | 386.1
366.15 K | 387.2
367.15 K | 387.8
368.15 K | 389.1
369.15 K | 391
370.15 K | 393.2
371.15 K | 395.8
372.15 K | 396.3
373.15 K | 397.3

CC(O)c1ccccc1 (configuration not stated) [1-phenylethanol]
Conditions | Molar enthalpy of transition or fusion [kJ/mol] | Normal melting temperature [°C]
[1] | – | 18.6
[3] | 16 | –

[2], Liquid
Conditions | molar heat capacity at constant pressure [J/K/mol]
297.15 K | 262.4
298.15 K | 263.1
299.15 K | 263.9
300.15 K | 264.6
301.15 K | 265.1
302.15 K | 265.8
303.15 K | 267.1
304.15 K | 267.9
305.15 K | 268.5
306.15 K | 269.4
307.15 K | 269.8
308.15 K | 271
309.15 K | 271.7
310.15 K | 272.4
311.15 K | 273
312.15 K | 273.7
313.15 K | 274.7
314.15 K | 275.1
315.15 K | 275.7
316.15 K | 276.4
317.15 K | 277.3
318.15 K | 278.2
319.15 K | 279.1
320.15 K | 279.6
321.15 K | 280.3
322.15 K | 281
323.15 K | 281.5
324.15 K | 282.2
325.15 K | 283
326.15 K | 283.9
327.15 K | 284.4
328.15 K | 284.8
329.15 K | 285.4
330.15 K | 286
331.15 K | 286.7
332.15 K | 287.3
333.15 K | 288.1
334.15 K | 288.9
335.15 K | 289.6
336.15 K | 290.2
337.15 K | 290.6
338.15 K | 291.2
339.15 K | 292
340.15 K | 292.5
341.15 K | 293
342.15 K | 293.6
343.15 K | 294.2
344.15 K | 295.2
345.15 K | 295.7
346.15 K | 296.3
347.15 K | 296.9
348.15 K | 297.5
349.15 K | 298.1
350.15 K | 298.3
351.15 K | 298.8
352.15 K | 299.2
353.15 K | 300.7
354.15 K | 300.8
355.15 K | 301.7
356.15 K | 302.8
357.15 K | 303.4
358.15 K | 303.8
359.15 K | 303.9
360.15 K | 304.5
361.15 K | 305.3
362.15 K | 305.7
363.15 K | 306.1
364.15 K | 307
365.15 K | 307.7
366.15 K | 308.4
367.15 K | 308.6
368.15 K | 308.9
369.15 K | 309.5
370.15 K | 310.3
371.15 K | 311.1
372.15 K | 311.6
373.15 K | 311.8

OC(c1ccccc1)c1ccccc1 [diphenylmethanol]
Conditions | mass density [kg/m3]
[1], 298 K, 101.33 kPa, Pycnometric method | 1210

[1]
Conditions | vapor or sublimation pressure [kPa]
301.97 K | 0.000128
304.52 K | 0.00018
305.16 K | 0.000198
308.1 K | 0.00028
311.41 K | 0.000446
314.06 K | 0.00061
317.02 K | 0.00091

Conditions | Molar enthalpy of transition or fusion [kJ/mol] | Normal melting temperature [°C]
[1] | – | 66.2
[3] | 23.7 | –

[2], Crystal
Conditions | molar heat capacity at constant pressure [J/K/mol]
259.15 K | 202.8
260.15 K | 203.3
261.15 K | 203.9
262.15 K | 204.6
263.15 K | 205.2
264.15 K | 206.1
265.15 K | 206.8
266.15 K | 207.6
267.15 K | 208.5
268.15 K | 209.5
269.15 K | 210.3
270.15 K | 211.1
271.15 K | 211.7
272.15 K | 212.5
273.15 K | 213.8
274.15 K | 214.1
275.15 K | 215.2
276.15 K | 215.9
277.15 K | 216.9
278.15 K | 216.8
279.15 K | 217.6
280.15 K | 218.5
281.15 K | 219.4
282.15 K | 220.2
283.15 K | 221
284.15 K | 221.8
285.15 K | 222.8
286.15 K | 223.3
287.15 K | 224.3
288.15 K | 225
289.15 K | 225.8
290.15 K | 226.5
291.15 K | 227.4
292.15 K | 228.2
293.15 K | 229.1
294.15 K | 229.9
295.15 K | 230.7
296.15 K | 231.9
297.15 K | 232
298.15 K | 233
299.15 K | 233.7
300.15 K | 234.5
301.15 K | 235.4
302.15 K | 236.2
303.15 K | 237
304.15 K | 237.8
305.15 K | 238.7
306.15 K | 239.6
307.15 K | 240.7
308.15 K | 241.8
309.15 K | 242.5
310.15 K | 243.3
311.15 K | 244.2
312.15 K | 245.2
313.15 K | 246
314.15 K | 247
315.15 K | 247.8
316.15 K | 248.8
317.15 K | 249.8
318.15 K | 250.7
319.15 K | 251.7
320.15 K | 252.5
321.15 K | 253.5
322.15 K | 254.4
323.15 K | 255.3
324.15 K | 256.4
325.15 K | 257.4
326.15 K | 258.5
327.15 K | 259.5
328.15 K | 260.7
329.15 K | 261.8
330.15 K | 263.1
331.15 K | 265.1
332.15 K | 267
